Assay results published in ChEMBL document CHEMBL1155732, “Anti-AIDS agents. 46. Anti-HIV activity of harman, an anti-HIV principle from Symplocos setchuensis, and its derivatives” (J Nat Prod, 2001).
Each block holds one compound with its values, some of them ahead of it.

Columns and labels:
[1] = system: Human immunodeficiency virus 1; assay: Antiviral activity against HIV1 in human H9 cells assessed as inhibition of viral replication; assay type: functional, organism-based
H9 = assay: Cytotoxicity against human H9 cells; assay type: cell-based
[2] = Therapeutic index, ratio of IC50 for human H9 cells to EC50 for HIV1; assay type: cell-based; conditions: for selectivity ratio: H9 cells, read-out: Ratio IC50/EC50; for Ratio IC50/EC50: h9
[3] = Human immunodeficiency virus 1, H9, read-out: EC50

EC50 [1, 3]: 2 µM
SMILES: COc1cc(C[C@H]2COC(=O)[C@@H]2Cc2ccc(O)c(OC)c2)ccc1O [MATAIRESINOL]
IC50 (H9; Homo sapiens, H9): 21.9 µM | selectivity ratio [2]: 11

EC50 [1, 3]: 6.9 µM
SMILES: COc1cc(C[C@H]2COC(=O)[C@@H]2Cc2ccc(OC(C)=O)c(OC)c2)ccc1OC(C)=O
IC50 (H9; Homo sapiens, H9): 49.3 µM | selectivity ratio [2]: 7.1

EC50 [1, 3]: 11.1 µM
SMILES: Cc1[nH]ccc2c1[nH]c1cc(=O)ccc12 [HARMOL]
IC50 (H9; Homo sapiens, H9): 108 µM | Ratio IC50/EC50 [2]: 9.7

EC50 ([1]; h9): Not Active
SMILES: COc1cc(C[C@H]2COC(=O)[C@@H]2Cc2ccc(O[C@@H]3O[C@H](CO)[C@@H](O)[C@H](O)[C@H]3O)c(OC)c2)ccc1O [MATAIRESINOSIDE]
IC50 (H9; Homo sapiens, H9): > 192 µM

EC50 ([1]; h9): Not Active
SMILES: CCCCCCCCC1NC(C(=O)O)Cc2c1[nH]c1ccccc21 (stereo not given)
IC50 (H9; Homo sapiens, H9): 60.4 µM

EC50 ([1]; h9): Not Active
SMILES: COc1ccc2c(c1)[nH]c1c(/C=C/c3ccc([N+](=O)[O-])cc3)nccc12
IC50 (H9; Homo sapiens, H9): 15.4 µM

EC50 [1, 3]: 7.1 µM
SMILES: COc1ccc2c3c([nH]c2c1)C(C)N(N=O)CC3 (stereo not given)
IC50 (H9; Homo sapiens, H9): 56.5 µM | selectivity ratio [2]: 8

EC50 [1, 3]: 9.6 µM
SMILES: CCC[n+]1ccc2c([nH]c3cc(OC)ccc32)c1C.[I-]
IC50 (H9; Homo sapiens, H9): 55.4 µM | Ratio IC50/EC50 [2]: 5.8

EC50 ([1]; h9): Not Active
SMILES: Cc1cc(O)n2c(n1)nc1ccccc12
IC50 (H9; Homo sapiens, H9): 118 µM

EC50 ([1]; h9): Not Active
SMILES: CCCCCCCCCCCCCCCCOc1ccc2c(c1)[nH]c1c(C)nccc12
IC50 (H9; Homo sapiens, H9): 42.7 µM

EC50 ([1]; h9): Not Active
SMILES: COc1cc([C@H]2c3cc(O)c(OC)cc3C[C@@H](CO)[C@@H]2CO)ccc1O [ISOLARICIRESINOL]
IC50 (H9; Homo sapiens, H9): > 277 µM

EC50 [1, 3]: 0.35 µM
SMILES: CCn1c2cc(OC)ccc2c2ccnc(C)c21
IC50 (H9; Homo sapiens, H9): 8.5 µM | selectivity ratio [2]: 24.2

EC50 ([1]; h9): Not Active
SMILES: COc1cc([C@@H]2OC[C@@H]3[C@H]2CO[C@H]3c2ccc(O)c(OC)c2)ccc1O [(+)-PINORESINOL]
IC50 (H9; Homo sapiens, H9): 67 µM

EC50 ([1]; h9): Not Active
SMILES: CCCCCCCCCCOc1ccc2c(c1)[nH]c1c(C)nccc12
IC50 (H9; Homo sapiens, H9): 5.9 µM

EC50 [1, 3]: 23.8 µM
SMILES: CCCn1c2cc(OC)ccc2c2cc[n+](C)c(C)c21.[Br-]
IC50 (H9; Homo sapiens, H9): 53.2 µM | Ratio IC50/EC50 [2]: 2.2

More lines, now with the values behind:

SMILES: COc1cc2[nH]c3c(C)nccc3c2cc1Br
EC50 ([1]; h9, read-out: EC50): 13.2 µM | IC50 (H9; h9): 74 µM | Ratio IC50/EC50 [2]: 5.6

SMILES: Br.CC1=NCCc2c1[nH]c1cc(O)ccc21
EC50 ([1]; h9): Not Active | IC50 (H9; Homo sapiens, H9): 97.1 µM

SMILES: Cc1nccc2c1[nH]c1cc(OC(=O)C34CCC(C)(C(=O)O3)C4(C)C)ccc12 (stereo not given)
EC50 ([1]; h9): Not Active | IC50 (H9; Homo sapiens, H9): 58.9 µM

SMILES: COc1ccc2c3ccnc(C)c3n(C)c2c1
EC50 [1, 3]: 1.1 µM | IC50 (H9; Homo sapiens, H9): 10.1 µM | selectivity ratio [2]: 9.2

SMILES: COc1ccc2c(c1)[nH]c1c(C)[n+](C)ccc12.[I-]
EC50 [1, 3]: 8.6 µM | IC50 (H9; Homo sapiens, H9): 49.6 µM | Ratio IC50/EC50 [2]: 5.8

SMILES: c1ccc2c(c1)[nH]c1cnccc12 [NORHARMANE]
EC50 [1, 3]: 44.1 µM | IC50 (H9; Homo sapiens, H9): 142 µM | Ratio IC50/EC50 [2]: 3.2

SMILES: CCCCCCOc1ccc2c(c1)[nH]c1c(C)nccc12
EC50 ([1]; h9): Not Active | IC50 (H9; Homo sapiens, H9): 8.2 µM

SMILES: Cc1nccc2c1[nH]c1ccccc12 [HARMAN]
EC50 [1, 3]: 10.7 µM | IC50 (H9; Homo sapiens, H9): 112 µM | selectivity ratio [2]: 10.4

SMILES: COc1ccc2c(c1)[nH]c1c(C)nccc12 [HARMINE]
EC50 [1, 3]: 0.52 µM | IC50 (H9; Homo sapiens, H9): 26.4 µM | Ratio IC50/EC50 [2]: 50.8

SMILES: Br.COc1cc2[nH]c3c(C)nccc3c2cc1Br
EC50 ([1]; h9, read-out: EC50): 0.22 µM | IC50 (H9; h9): 5.9 µM | Ratio IC50/EC50 [2]: 26.8

SMILES: Cc1nccc2c1[nH]c1cc(OC(C)C)ccc12
EC50 ([1]; h9): Not Active | IC50 (H9; Homo sapiens, H9): 86.7 µM

SMILES: CCOc1ccc2c(c1)[nH]c1c(C)nccc12
EC50 [1, 3]: 6.5 µM | IC50 (H9; Homo sapiens, H9): 25.9 µM | Ratio IC50/EC50 [2]: 4

SMILES: CCCCn1c2cc(OC)ccc2c2ccnc(C)c21
EC50 [1, 3]: 0.037 µM | IC50 (H9; Homo sapiens, H9): 7.8 µM | selectivity ratio [2]: 210

SMILES: COc1ccc2c3ccn(C)c(C)c-3nc2c1
IC50 (H9; Homo sapiens, H9): 70.9 µM | Ratio IC50/EC50 [2]: 15.8

SMILES: COS(=O)(=O)O.Cc1nccc2c1[nH]c1ccccc12
EC50 ([1]; h9, read-out: EC50): 10.3 µM | IC50 (H9; h9): 77.5 µM | Ratio IC50/EC50 [2]: 7.5

SMILES: CC1=NCCc2c1[nH]c1cc(O)ccc21.Cl [HARMALOL HYDROCHLORIDE]
EC50 ([1]; h9): Not Active | IC50 (H9; h9): 87.1 µM

SMILES: CC(=O)Oc1ccc2c(c1)[nH]c1c(C)nccc12
EC50 [1, 3]: 17.3 µM | IC50 (H9; Homo sapiens, H9): 107 µM | Ratio IC50/EC50 [2]: 6.2

SMILES: CC1=NCCc2c1[nH]c1ccccc21
EC50 [1, 3]: 32 µM | IC50 (H9; Homo sapiens, H9): 110 µM | Ratio IC50/EC50 [2]: 3.4
